Measured values published in patent US10322111B2, “Chemokine receptor binding heterocyclic compounds with enhanced efficacy” (Genzyme Corporation, priority 2001, dated 2019).
Where two headings read alike, the source gives them in different places.

Key:
progenitor cells = details: mice, AMD3100 5 mg/Kg s.c. + MIP-1α 5 μg I.V., 11 hours after rhu G-CSF or saline, blood 1 hour later
Experimental: One hour later, the mice were sacrificed and the number of progenitor cells per mL of blood were measured.

[1] = system: CD34 positive progenitor cells
[2] = system: unseparated and low density nucleated cells; details: 80 μg/kg s.c.

c1cc(CN2CCCNCCNCCCNCC2)ccc1CN1CCCNCCNCCCNCC1 [AMD3100, 1,1′-[1,4-phenylene-bis(methylene)]-bis-1,4,8,11-tetraazacyclotetradecane]
mobilization of progenitor cells in combination with mu MIP-1α (progenitor cells): additive to greater than additive
time post-administration at which elevation of CD34 positive progenitor cells maximized ([1]; human volunteers, 80 μg/kg s.c.): 6 h
CD34 positive cells ([1]; volunteer P1, 1 Hr after 80 μg/kg s.c.): .04 percentage of the total WBC's
CD34 positive cells ([1]; volunteer P1, 3 Hr after 80 μg/kg s.c.): .07 percentage of the total WBC's
CD34 positive cells ([1]; volunteer P1, 6 Hr after 80 μg/kg s.c.): .11 percentage of the total WBC's
CD34 positive cells ([1]; volunteer P1, 9 Hr after 80 μg/kg s.c.): .11 percentage of the total WBC's
CD34 positive cells ([1]; volunteer P1, Day 2 after 80 μg/kg s.c.): .08 percentage of the total WBC's
CD34 positive cells ([1]; volunteer P2, 1 Hr after 80 μg/kg s.c.): .06 percentage of the total WBC's
CD34 positive cells ([1]; volunteer P2, 3 Hr after 80 μg/kg s.c.): .08 percentage of the total WBC's
CD34 positive cells ([1]; volunteer P2, 6 Hr after 80 μg/kg s.c.): .13 percentage of the total WBC's
CD34 positive cells ([1]; volunteer P2, 9 Hr after 80 μg/kg s.c.): .11 percentage of the total WBC's
CD34 positive cells ([1]; volunteer P2, Day 2 after 80 μg/kg s.c.): .12 percentage of the total WBC's
CD34 positive cells ([1]; volunteer P3, 1 Hr after 80 μg/kg s.c.): .16 percentage of the total WBC's
CD34 positive cells ([1]; volunteer P3, 3 Hr after 80 μg/kg s.c.): .06 percentage of the total WBC's
CD34 positive cells ([1]; volunteer P3, 9 Hr after 80 μg/kg s.c.): .11 percentage of the total WBC's
CD34 positive cells ([1]; volunteer P3, Day 2 after 80 μg/kg s.c.): .07 percentage of the total WBC's
CD34 positive cells ([1]; volunteer P4, 1 Hr after 80 μg/kg s.c.): .07 percentage of the total WBC's
CD34 positive cells ([1]; volunteer P4, 3 Hr after 80 μg/kg s.c.): .09 percentage of the total WBC's
CD34 positive cells ([1]; volunteer P4, 6 Hr after 80 μg/kg s.c.): .09 percentage of the total WBC's
CD34 positive cells ([1]; volunteer P4, 9 Hr after 80 μg/kg s.c.): .1 percentage of the total WBC's
CD34 positive cells ([1]; volunteer P4, Day 2 after 80 μg/kg s.c.): .1 percentage of the total WBC's
CD34 positive cells ([1]; volunteer P5, 1 Hr after 80 μg/kg s.c.): .12 percentage of the total WBC's
CD34 positive cells ([1]; volunteer P5, 3 Hr after 80 μg/kg s.c.): .13 percentage of the total WBC's
CD34 positive cells ([1]; volunteer P5, 6 Hr after 80 μg/kg s.c.): .2 percentage of the total WBC's
CD34 positive cells ([1]; volunteer P5, 9 Hr after 80 μg/kg s.c.): .2 percentage of the total WBC's
CD34 positive cells ([1]; volunteer P5, Day 2 after 80 μg/kg s.c.): .16 percentage of the total WBC's
FOLD CHANGE COMPARED TO TIME = 0, nucleated cellularity PBL-LD ([2]; P1, T = 1 h after injection): 2.07 fold
FOLD CHANGE COMPARED TO TIME = 0, nucleated cellularity PBL-US ([2]; P1, T = 1 h after injection): 2.54 fold
FOLD CHANGE COMPARED TO TIME = 0, nucleated cellularity PBL-LD ([2]; P1, T = 3 h after injection): 2.83 fold
FOLD CHANGE COMPARED TO TIME = 0, nucleated cellularity PBL-US ([2]; P1, T = 3 h after injection): 3.55 fold
FOLD CHANGE COMPARED TO TIME = 0, nucleated cellularity PBL-LD ([2]; P1, T = 6 h after injection): 4.07 fold
FOLD CHANGE COMPARED TO TIME = 0, nucleated cellularity PBL-US ([2]; P1, T = 6 h after injection): 3.97 fold
FOLD CHANGE COMPARED TO TIME = 0, nucleated cellularity PBL-LD ([2]; P1, T = 9 h after injection): 3.65 fold
FOLD CHANGE COMPARED TO TIME = 0, nucleated cellularity PBL-US ([2]; P1, T = 9 h after injection): 3.27 fold
FOLD CHANGE COMPARED TO TIME = 0, nucleated cellularity PBL-LD ([2]; P1, T = 24 h after injection): 1.01 fold
FOLD CHANGE COMPARED TO TIME = 0, nucleated cellularity PBL-US ([2]; P1, T = 24 h after injection): 1.21 fold
FOLD CHANGE COMPARED TO TIME = 0, nucleated cellularity PBL-LD ([2]; P2, T = 1 h after injection): 1.99 fold
FOLD CHANGE COMPARED TO TIME = 0, nucleated cellularity PBL-US ([2]; P2, T = 1 h after injection): 1.38 fold
FOLD CHANGE COMPARED TO TIME = 0, nucleated cellularity PBL-LD ([2]; P2, T = 3 h after injection): 3.25 fold
FOLD CHANGE COMPARED TO TIME = 0, nucleated cellularity PBL-US ([2]; P2, T = 3 h after injection): 2.74 fold
FOLD CHANGE COMPARED TO TIME = 0, nucleated cellularity PBL-LD ([2]; P2, T = 6 h after injection): 3.90 fold
FOLD CHANGE COMPARED TO TIME = 0, nucleated cellularity PBL-US ([2]; P2, T = 6 h after injection): 2.94 fold
FOLD CHANGE COMPARED TO TIME = 0, nucleated cellularity PBL-LD ([2]; P2, T = 9 h after injection): 4.43 fold
FOLD CHANGE COMPARED TO TIME = 0, nucleated cellularity PBL-US ([2]; P2, T = 9 h after injection): 3.30 fold
FOLD CHANGE COMPARED TO TIME = 0, nucleated cellularity PBL-LD ([2]; P2, T = 24 h after injection): 1.71 fold
FOLD CHANGE COMPARED TO TIME = 0, nucleated cellularity PBL-US ([2]; P2, T = 24 h after injection): 1.43 fold
FOLD CHANGE COMPARED TO TIME = 0, nucleated cellularity PBL-LD ([2]; P3, T = 1 h after injection): 1.48 fold
FOLD CHANGE COMPARED TO TIME = 0, nucleated cellularity PBL-US ([2]; P3, T = 1 h after injection): 1.38 fold
FOLD CHANGE COMPARED TO TIME = 0, nucleated cellularity PBL-LD ([2]; P3, T = 3 h after injection): 2.17 fold
FOLD CHANGE COMPARED TO TIME = 0, nucleated cellularity PBL-US ([2]; P3, T = 3 h after injection): 2.02 fold
FOLD CHANGE COMPARED TO TIME = 0, nucleated cellularity PBL-LD ([2]; P3, T = 6 h after injection): 2.27 fold
FOLD CHANGE COMPARED TO TIME = 0, nucleated cellularity PBL-US ([2]; P3, T = 6 h after injection): 2.74 fold
FOLD CHANGE COMPARED TO TIME = 0, nucleated cellularity PBL-LD ([2]; P3, T = 9 h after injection): 2.47 fold
FOLD CHANGE COMPARED TO TIME = 0, nucleated cellularity PBL-US ([2]; P3, T = 9 h after injection): 2.69 fold
FOLD CHANGE COMPARED TO TIME = 0, nucleated cellularity PBL-LD ([2]; P3, T = 24 h after injection): 0.79 fold
FOLD CHANGE COMPARED TO TIME = 0, nucleated cellularity PBL-US ([2]; P3, T = 24 h after injection): 0.96 fold
FOLD CHANGE COMPARED TO TIME = 0, nucleated cellularity PBL-LD ([2]; P4, T = 1 h after injection): 1.66 fold
FOLD CHANGE COMPARED TO TIME = 0, nucleated cellularity PBL-US ([2]; P4, T = 1 h after injection): 1.36 fold
FOLD CHANGE COMPARED TO TIME = 0, nucleated cellularity PBL-LD ([2]; P4, T = 3 h after injection): 2.82 fold
FOLD CHANGE COMPARED TO TIME = 0, nucleated cellularity PBL-US ([2]; P4, T = 3 h after injection): 2.46 fold
FOLD CHANGE COMPARED TO TIME = 0, nucleated cellularity PBL-LD ([2]; P4, T = 6 h after injection): 2.78 fold
FOLD CHANGE COMPARED TO TIME = 0, nucleated cellularity PBL-US ([2]; P4, T = 6 h after injection): 2.60 fold
FOLD CHANGE COMPARED TO TIME = 0, nucleated cellularity PBL-LD ([2]; P4, T = 9 h after injection): 2.48 fold
FOLD CHANGE COMPARED TO TIME = 0, nucleated cellularity PBL-US ([2]; P4, T = 9 h after injection): 2.24 fold
FOLD CHANGE COMPARED TO TIME = 0, nucleated cellularity PBL-LD ([2]; P4, T = 24 h after injection): 0.60 fold
FOLD CHANGE COMPARED TO TIME = 0, nucleated cellularity PBL-US ([2]; P4, T = 24 h after injection): 0.77 fold
FOLD CHANGE COMPARED TO TIME = 0, nucleated cellularity PBL-LD ([2]; P5, T = 1 h after injection): 2.10 fold
FOLD CHANGE COMPARED TO TIME = 0, nucleated cellularity PBL-US ([2]; P5, T = 1 h after injection): 1.76 fold
FOLD CHANGE COMPARED TO TIME = 0, nucleated cellularity PBL-LD ([2]; P5, T = 3 h after injection): 3.20 fold
FOLD CHANGE COMPARED TO TIME = 0, nucleated cellularity PBL-US ([2]; P5, T = 3 h after injection): 3.23 fold
FOLD CHANGE COMPARED TO TIME = 0, nucleated cellularity PBL-LD ([2]; P5, T = 6 h after injection): 5.30 fold
FOLD CHANGE COMPARED TO TIME = 0, nucleated cellularity PBL-US ([2]; P5, T = 6 h after injection): 4.04 fold
FOLD CHANGE COMPARED TO TIME = 0, nucleated cellularity PBL-LD ([2]; P5, T = 9 h after injection): 5.17 fold
FOLD CHANGE COMPARED TO TIME = 0, nucleated cellularity PBL-US ([2]; P5, T = 9 h after injection): 3.96 fold
FOLD CHANGE COMPARED TO TIME = 0, nucleated cellularity PBL-LD ([2]; P5, T = 24 h after injection): 1.12 fold
FOLD CHANGE COMPARED TO TIME = 0, nucleated cellularity PBL-US ([2]; P5, T = 24 h after injection): 0.99 fold
